Source: patent publication US11426374B2, “Modification of the pH and other physical properties of oxaloacetic acid to allow for enhanced stability and multiple delivery systems” (Terra Biological LLC, priority 2015, dated 2022)
Entries after “also recorded” stand apart in the source; their conditions may differ.

Experiments:
[1] = Lozenge of oxaloacetic acid with a test substance, stability in open environment for one week; conditions: for decomposition of oxaloacetic acid compounded with the ingredient and compressed into a lozenge: examination over a period of one week; for effective way of increasing the pH without degrading the oxaloacetic acid: pH modifier combined with oxaloacetic acid
Description: The Applicant set out on a path of discovery to ascertain what compounds would be stable with oxaloacetic acid—not just for pH modification, but for other physical properties necessary for various delivery systems, such as color stabilization, lozenge dissolve time, lozenge friability, taste, lozenge release from the tablet mold, flow agents, and bulking agents in addition to pH modification. Preparations of oxaloacetic acid was compounded with various ingredients and compressed into a lozenge for examination over a period of one week.
A lozenge is created consisting of 100 mg oxaloacetic acid, and 100 mg of a test substance. The powders are compressed in a tablet mold and released. Each test tablet is placed on a cardboard for one week to ascertain stability in an open environment, such as an open bottle.
The procedure in Example 1 was followed, but with the following individual modifiers to oxaloacetic acid: • Calcium Carbonate (pH Modifier) • Erythitol (Taste Modifier) • Dicalcium Phosphate dihydrate (pH Modifier and lozenge binder) • Vegetable Steric Acid (Release Agent) • Ascorbyl Palmitate (Release Agent)

[2] = pH of solution created by oxaloacetic acid delivered to the mouth; type: physicochemical; conditions: delivered to the mouth in powder or lozenge form
Description: Other methods of delivery are transdermal patches, sublingual lozenges, buccal lozenges, inhalation preparations and anal or vaginal suppositories. These methods of delivery can provide higher percentages of the given oxaloacetate to the blood stream for distribution to various organs, and provide the oxaloacetate quicker than the oral route. These delivery methods face a problem with the acidity of oxaloacetic acid. As an example of this, oxaloacetic acid delivered to the mouth in powder or lozenge form creates a solution at a pH of approximately 2.3. This low pH degrades the enamel on the teeth, and provides a large challenge to continued long-term use of oxaloacetate in sublingual lozenges and buccal lozenges. The effect on the teeth is apparent after just 100 mg oxaloacetate is taken either sublingually or via buccal lozenge. The low pH also causes a painful burning sensation in the lungs if inhaled. Vaginal and anal suppositories are also uncomfortable at low pH. Transdermal patches at low pH are also uncomfortable.

[3] = Yoshikawa 1968; Cash 2013; room temperature for the sodium salt; cited from earlier work
[4] = oxaloacetic acid with anhydrous NaOH or KOH or both

Row | Molecule | decomposition of oxaloacetic acid compounded with the ingredient and compressed into a lozenge [1] | further results
1 | OC[C@@H](O)[C@@H](O)CO [Erythitol] | effective | –
2 | OC[C@@H](O)[C@H](O)[C@@H](O)CO [Xylitol] | rapid decomposition; also recorded: did not work well | –
3 | O=C(O)CC(=O)C(=O)O [oxaloacetic acid] | – | pH of solution [2]: approximately 2.3; stability [3]: not stable at all
4 | O=C([O-])O.[Na+] [Sodium bicarbonate] | rapid decomposition | effective way of increasing the pH without degrading the oxaloacetic acid [1]: not effective
5 | CCCCCCCCCCCCCCCC(=O)OC[C@H](O)[C@H]1OC(=O)C(O)=C1O [Ascorbyl Palmitate] | effective | –
6 | O=C([O-])[O-].[Ca+2] [Calcium Carbonate] | effective | effective way of increasing the pH without degrading the oxaloacetic acid [1]: effective
7 | CCCCCCCCCCCCCCCCCC(=O)O [Vegetable Steric Acid] | effective | –
8 | O=C([O-])CC(O)(CC(=O)[O-])C(=O)[O-].[K+].[K+].[K+] [Potassium Citrate] | rapid decomposition | –
9 | O=C([O-])CC(=O)C(=O)O.[Na+] [sodium oxaloacetate] | – | stability [3]: not stable, and quickly degrades at room temperature
10 | [Na+].[OH-] [NaOH, sodium hydroxide] | rapid decomposition | –
11 | [O]=[Mg] [Magnesium Oxide] | rapid decomposition | –
12 | O=C([O-])O.[K+] [Potassium Bicarbonate] | rapid decomposition | –
13 | [K+].[OH-] [KOH, potassium hydroxide] | rapid decomposition | effective way of increasing the pH without degrading the oxaloacetic acid [1]: not effective; degradation of sublingual tablets after manufacture [4]: degraded within a few days
14 | [O]=[Ti]=[O] [TiO2] | rapid decomposition | –
15 | O=C(O)CC(O)(CC(=O)O)C(=O)O [Citric Acid] | rapid decomposition | –
16 | OC[C@H]1O[C@@](CO)(O[C@H]2O[C@H](CO)[C@@H](O)[C@H](O)[C@H]2O)[C@@H](O)[C@@H]1O [Table sugar] | rapid decomposition | –
17 | O.O.O=P([O-])([O-])O.[Ca+2] [Dicalcium Phosphate dihydrate] | effective | –
18 | [Cl-].[Na+] [NaCl] | rapid decomposition | –
19 | Silicon Dioxide | rapid decomposition | –
20 | O=P([O-])([O-])O.[Ca+2] [Calcium Phosphate Dibasic] | rapid decomposition | –
21 | Magnesium Stearate | rapid decomposition | –
22 | [Mg+2].[OH-].[OH-] [Magnesium Hydroxide] | rapid decomposition | –
